In patent publication US20260256870A1, “SKIN COMPOSITION” (Eaderm Co., Ltd., priority 2019, published 2026):
Entries after “also recorded” stand apart in the source; their conditions may differ. Structures can show the parent of a compound that is named as a salt. One block for each compound: values may come before it.

Experiments:
[1] = tested on: skin damage induced by erlotinib; assay: Improvement of skin damage caused by erlotinib administration, TEWL (Example 10); assay type: in vivo, C57BL6N mice; conditions: erlotinib 50 mg/kg/day intraperitoneal, 7 weeks old or 6 months old mice (FIG. 19)
Description: Female […] mice (7 weeks old or 6 months old) were acclimatized to the experimental environment, and then hair was removed from their back under anesthesia. […] The control non-administered group received the 0.5% methylcellulose solution of the solvent in the same way. The control group applied with the solvent and the group applied with 200 μM apocynin received an aqueous solution of each preparation once a day, five times a week on the back. To the control solvent application group the solvent (50% ethanol/PBS) of apocynin was similarly applied.

[2] = tested on: skin damage induced by anticancer drugs; assay: TEWL after EGF receptor inhibitor administration (Example 9); conditions: control mice about 18 months old, 50 mg/kg/day intraperitoneal, day 7 (FIG. 18)
Text: A 0.5% methylcellulose solution of the solvent was similarly administered to the control non-treated group. […] Measurements were taken at specific sites on the back of the mice (two sites symmetrically located on the left side and right side from the center of the spine) using Tewameter TN300 (Courage+Khazaka, Integral Corporation, Germany).

COL17A1 [3] = assay: Stabilization of COL17A1 against UV-induced repression
COL17A1 [4] = assay: COL17A1 expression in human epidermal keratinocytes by high content imaging (HCS); assay type: cell-based; conditions: for COL17A1 expression level (control ratio): human epidermal keratinocytes, 48 hours after addition of reagents
Description: The present inventors further searched for substances that induce or maintain the expression of COL17A1. Human epidermal keratinocytes were seeded in 384-well plates, cultured for 48 hours after addition of reagents, immunostained with an anti-COL17A1 antibody and a fluorescently labeled secondary antibody, and then the fluorescence intensity per cell was detected using a high content imaging system (HCS: High Content Screening). In addition to cell counting with DAPI, the expression level of COL17A1 was quantified.

[5] = tested on: human epidermal keratinocytes; assay: Colony formation assay using human epidermal keratinocytes; assay type: cell-based
Text: To test whether COL17A1-mediated SCD maintains clonal proliferation of epidermal stem cell clones, the present inventors used a colony formation assay, which is an in vitro assay said to be the gold standard for assessing the self-renewal ability of epidermal stem cells, including cells in the tail epidermis.

[6] = tested on: UV-induced wrinkles of back skin; assay: Wrinkle improvement after UV irradiation (Example 15); assay type: in vivo, Hairless mice HOS: HR-1; conditions: UVA+UVB, retinol 0.1%, apocynin 200 μM, long-term application (FIG. 25)
Text: In a mouse model in which wrinkle formation was induced by long-term exposure to ultraviolet (UVA) light, the present inventors examined the effect of substances that promote the self-renewal ability of epidermal stem cells on the improvement of wrinkles.
Hairless mice HOS: HR-1 females (7 weeks old) were acclimated to the experimental environment and then grouped into the […] groups below, so that their body weight values would be nearly uniform. • No UV irradiation group (n=2). • UV (UVA+UVB) irradiation+solvent application group (n=4) • Ultraviolet (UVA+UVB) irradiation+200 μM apocynin application group (n=4). • UV (UVA+UVB) irradiation+0.1% retinol application group (n=2) […]
For each group of mice from the first to the fourth week after the start of UV irradiation, the back was photographed with a high-resolution three-dimensional image analyzer PRIMOS-CR (Canfield Scientific, Inc., USA). Based on the images obtained, total wrinkle volume (mm^3) and total wrinkle mean depth (μm) were measured with the Primos OMC3_22 software. Skin flexibility was measured using Cutometer MPA580 (Courage+Khazaka, Integral Corporation, Germany), and the value of RO was used as skin flexibility.

back skin = assay: Skin elasticity and TEWL after long-term application (Example 14); assay type: in vivo, hairless mice (HOS: HR-1); conditions: three times a week for seven weeks, day 53; retinol 0.1%, apocynin 200 μM (FIG. 23)
Description: TEWL measurements and skin elasticity measurements were performed on the back of each group (at two sites on the left side and right side symmetrically from the center of the spine) 7 weeks after the start of application (day 53). TEWL measurements were performed at specific sites on the back of mice (two sites on the left side and right side symmetrically from the center of the spine). The elasticity of the skin was measured using Cutometer MPA580 (Courage+Khazaka, Integral Corporation, Germany) (parameter settings: 300 mba, 2 sec ON time, 2 sec OFF time), and the average value of the three measurements was used for analysis. By suctioning the skin on the back of the mouse for 2 seconds and then releasing the suction 2 seconds later, the length of the skin stretched was measured at each time point immediately after suctioning, immediately before suction release, and immediately after suction release; and they are return of the skin at the time of suction release (Ua: unit mm), rapid stretching in the initial stage of suctioning (Ue: unit mm), maximum degree of skin stretch just before suction release (Uf: unit mm), and the amount of rapid recovery immediately after suction release (Ur: unit mm). R5-Ur/Ue was set as the index of net elasticity, and R7=Ur/Uf as the index of elasticity. R2=Ua/Uf was set as the index of gross elasticity.

[7] = tested on: full thickness wounds in the skin of rodent tails; assay: Full thickness wound healing in tail skin; assay type: in vivo, mice; conditions: day 0, day 14, day 21 (FIG. 12)
Description: To test the above hypothesis, the present inventors performed a full-layer wound healing experiment using the tail skin of aged wild-type mice. […] Forced expression of hCOL17A1 by basal layer keratinocytes in mice also promoted wound healing (FIG. 12). […] To confirm the beneficial effects in vivo, these drugs were administered to full thickness wounds in the skin of rodent tails.

UVB-irradiated back skin = assay: Barrier function after UVB irradiation (Example 12); assay type: in vivo, Hairless mice HOS: HR-1; conditions: for water content of the stratum corneum after ultraviolet irradiation: UVB 150 mJ/cm^2, fourth day (FIG. 21)
Description: Hairless mice HOS: HR-1 females (7 weeks old) were acclimatized to the experimental environment and then grouped into the 6 groups below, so that the body weight values were nearly uniform. • No ultraviolet irradiation group (n=2) • Ultraviolet (UVB) irradiation+solvent application group (n=4). • Ultraviolet (UVB) irradiation+200 nM apocynin application group (n=4). • Ultraviolet (UVB) irradiation+200 μM apocynin application group (n=4). • Ultraviolet (UVB) irradiation+2 μM Y-27632 application group (n=4). • Ultraviolet (UVB) irradiation+20 μM Y-27632 application group (n=4) In the above solution application group, aqueous solutions of each preparation were applied to hairless mice on their back once a day for five days, starting from the day before ultraviolet irradiation. UVB irradiation was carried out using a Yayoi ultraviolet irradiation system (Y-UV-Lab-K-D5 lamp type) at an intensity of 150 mJ/cm^2 once a day. The stratum corneum water content and TEWL of the irradiated area were measured for each group of mice on the fourth day after the start of ultraviolet irradiation. The measurements were performed using Corneometer CM825 and Tewameter TN300 (Courage+Khazaka, Integral Corporation, Germany) at specific sites on the back of the mice.

COL17A1 [8] = conditions: HaCaT cells, 24 hours after hydrogen peroxide treatment (FIG. 17)
Description: The anticancer agent hydroxyurea was administered to 7-week-old C57BL6 mice three times a month, and the tissues were collected three months later for immunostaining using an antibody for COL17A1. […] In addition, HaCaT cells, which are human epidermal keratinocytes, were irradiated with radiation (20 Gy, 30 Gy) and UV light (20 mJ, 30 mJ) and the cells were collected after 24 and 72 hours, respectively, and Western blotting was performed using an antibody against COL17A1.

[9] = Table 1, fluorescence intensity per cell

Compound: C#Cc1cccc(Nc2ncnc3cc(OCCOC)c(OCCOC)cc23)c1 [Erlotinib]
TEWL [1]: significantly increased | TEWL [2]: significantly increased

Compound: CNC(=O)[C@@H](NC(=O)[C@H](CC(C)C)[C@H](O)C(=O)NO)C(C)(C)C [Marimastat]
COL17A1 stability / UV-induced downward repression of COL17A1 (COL17A1 [3]): stabilizes COL17A1 and blocks the UV-induced downward repression of COL17A1

Compound: OC1(c2ccc(Cl)c(C(F)(F)F)c2)CCN(CCCC(c2ccc(F)cc2)c2ccc(F)cc2)CC1 [Penfluridol]
COL17A1 expression level (control ratio) (COL17A1 [4]; [9]): ⊚ (one double circle (⊚) represents a 1.2-fold or greater increase) | Colony area (control ratio) ([5]; Table 1): ⊚ (one double circle (⊚) indicates maintenance of 1.0-1.2-fold) | Colony number (control ratio) ([5]; Table 1): ⊚ (one double circle (⊚) indicates maintenance of 1.0-1.2-fold)

TEWL [6]: significantly increased | TEWL ([6]; listed as retinol): marked increase | TEWL after long-term continuous application (back skin): significantly increased
Compound: CC1=C(/C=C/C(C)=C/C=C/C(C)=C/CO)C(C)(C)CCC1 [Retinol]

Compound: C[C@H]1CNCCCN1S(=O)(=O)c1cccc2cncc(F)c12 [Ripasudil]
COL17A1 expression level (control ratio) (COL17A1 [4]; [9]): ⊚⊚ (two double circles (⊚⊚) in the COL17A1 expression level (control ratio) represent a 2.0-fold or greater increase in the expression level) | Colony area (control ratio) ([5]; Table 1): ⊚ (one double circle (⊚) indicates maintenance of 1.0-1.2-fold) | Colony number (control ratio) ([5]; Table 1): ⊚ (one double circle (⊚) indicates maintenance of 1.0-1.2-fold)

Compound: CC(CN(C)C)CN1c2ccccc2CCc2ccccc21 (centres unmarked) [Trimipramine Maleate]
COL17A1 expression level (control ratio) (COL17A1 [4]; [9]): ⊚⊚ (two double circles (⊚⊚) in the COL17A1 expression level (control ratio) represent a 2.0-fold or greater increase in the expression level) | Colony area (control ratio) ([5]; Table 1): ⊚ (one double circle (⊚) indicates maintenance of 1.0-1.2-fold) | Colony number (control ratio) ([5]; Table 1): ⊚ (one double circle (⊚) indicates maintenance of 1.0-1.2-fold)

Compound: C[C@@H](N)[C@H]1CC[C@H](C(=O)Nc2ccncc2)CC1 [Y-27632]
wound repair (unrepaired wound area) [7]: significantly accelerated | wound repair (unrepaired wound area) ([7]; listed as Y27632): significantly promote the wound repair process | water content of the stratum corneum after ultraviolet irradiation (UVB-irradiated back skin; 2 μM applied): significantly higher | TEWL after ultraviolet irradiation (UVB-irradiated back skin; 20 μM administration group, UVB, fourth day (FIG. 21)): significantly lower | water content of the stratum corneum after ultraviolet irradiation (UVB-irradiated back skin; 20 μM applied): significantly higher | COL17A1 expression level (control ratio) (COL17A1 [4]; [9]): ⊚⊚ (two double circles (⊚⊚) in the COL17A1 expression level (control ratio) represent a 2.0-fold or greater increase in the expression level) | COL17A1 expression / amount of COL17A1 in cultured keratinocytes compared to the control (COL17A1 [4]; in vitro, HCS (FIG. 15)): maintain or induce the COL17A1 expression; also recorded: induce the COL17A1 expression | Colony area (control ratio) ([5]; Table 1): ⊚ (one double circle (⊚) indicates maintenance of 1.0-1.2-fold) | Colony number (control ratio) ([5]; Table 1): ⊚ (one double circle (⊚) indicates maintenance of 1.0-1.2-fold) | number of colonies ([5]; compared to the control, n=3 wells (FIG. 13, FIG. 16)): significantly increased | average size of the top five colonies ([5]; compared to the control, n=3 wells (FIG. 14)): significantly increased | colony size ([5]; human epidermal keratinocytes): significantly increased | number of colonies with a diameter greater than 2 mm ([5]; n=3 wells (FIG. 13 right)): significantly increased

Compound: OO [hydrogen peroxide]
expression of COL17A1 (Western blot) (COL17A1 [8]): marked decrease

Compound: Helenin
COL17A1 expression level (control ratio) (COL17A1 [4]; Table 2): ⊚⊚ (two double circles (⊚⊚) in the COL17A1 expression level (control ratio) represent a 2.0-fold or greater increase in the expression level) | Colony area (control ratio) ([5]; Table 2): ⊚ (one double circle (⊚) indicates maintenance of 1.0-1.2-fold) | Colony number (control ratio) ([5]; Table 2): ⊚ (one double circle (⊚) indicates maintenance of 1.0-1.2-fold)
